From patent US20240299556A1, “Magnolol and Sulforaphane Conjgate, and Preparation Method and Use Thereof” (Shenzhen Zhenxing Biomedicine Research Center Co., Ltd., priority 2019, published 2024) come the findings set out here.

Common to all, as to type: cell-based
Series [1] deals with human lung cancer cell line NCI-H460. Put plainly: Proliferation of NCI-H460 cells (CCK8 kit). As for the experimental part:
2.1 Cultivation of NCI-H460 Cells. The Cells, when Grow to the Logarithmic Growth phase, were digested with 0.25% trypsin, centrifuged at 1000×g for 5 min, and the cell pellet were re-suspended with 1640 medium containing 10% FBS and inoculated in a 96-well culture plate at a density of 5000 cells/well, and then cultured overnight at 37° C., 5% CO2 and saturated humidity.
2.2 Six duplicate wells were set in each group, and drugs were added to each well according to the following conditions, and then cultured for 24 h.
Control group: The group without drugs.
Magnolol group: Magnolol added at a final concentration of 20 μM.
CT-1 group: CT-1 added at a final concentration of 20 μM.
CT-2 group: CT-2 added at a final concentration of 20 μM.
CT-3 group: CT-3 added at a final concentration of 20 μM.
The above cells were intervened for 24 hours, and then the effects of drugs on tumor cell proliferation were detected by using CCK8 kit. The specific operations are as follows: […] was added to each well and cultured for 2 h, and then the absorbance (OD) value at a wavelength of 450 nm was measured on a microplate reader, and the cell survival rate of the other groups was calculated on the basis of the cell survival rate of the control group as 100%.
(Tetrazolium dyes change colour on reduction, which living cells bring about.)

Series [2] concerns human ovarian cancer cell line OVCAR3. Put plainly: Proliferation of OVCAR3 cells (CCK8 kit). As for the experimental part: (§1) Human glioma cell line U251, human lung cancer cell line H1650, human liver cancer cell line HepG2, human breast cancer cell line MDA-MB-231, human gastric cancer cell line AGS, human colon cancer cell line LOVO, human ovarian cancer cell line OVCAR3. 2.1 Cultivation of the above 7 kinds of cancer cells. The cells, when grow to the logarithmic growth phase, were digested with 0.25% trypsin, centrifuged at 1000×g for 5 min, and the cell pellet were re-suspended with 1640 medium containing 10% FBS and inoculated in a 96-well culture plate at a density of 5000 cells/well, and then cultured overnight at 37° C., 5% CO2 and saturated humidity. 2.2 Each group was set up with 6 duplicate wells, and drugs were added to each well according to the following conditions, and then cultured for 24 h. Positive control groups: […] Sulforaphane added at a final concentration of 5.0 μM; • Positive control group 5: Sulforaphane added at a final concentration of 10.0 μM; • Positive control group 6: Sulforaphane added at a final concentration of 20.0 μM. CT-3 groups: Divided into 3 groups: • CT-3 group 1: CT-3 added at a final concentration of 5.0 μM; • CT-3 group 2: CT-3 added at a final concentration of 10.0 μM; • CT-3 group 3: CT-3 added at a final concentration of 20.0 μM. The above cells were intervened for 24 hours, and then the effects of drugs on tumor cell proliferation were detected by using CCK8 kit.

The test system of series [3] is human colon cancer cell line SW480. Put plainly: Apoptosis of SW480 cells (apoptosis detection kit, flow cytometry). Particulars: SW480, 10.0 μM, 24 h. The procedure:
(§2) The cells, when grow to the logarithmic growth phase, were digested with 0.25% trypsin, centrifuged at 1000×g for 5 min, and the cell pellet were re-suspended with 1640 medium containing 10% FBS and inoculated in a 6-well culture plate at a density of 3.0×10^5 cells/well, and then cultured overnight at 37° C., 5% CO2 and saturated humidity. 2.2 Each group was set up with 3 duplicate wells, and drugs were added to each well according to the following conditions, and then cultured for 24 h. […] Sulforaphane added at a final concentration of 10.0 μM. CT-3 group: CT-3 was added at a final concentration of 10.0 μM. The above cells were intervened for 24 hours, and then the effect of CT-3 on tumor cell apoptosis was determined by apoptosis detection kit and flow cytometry.
For orientation: Flow cytometry measures light scatter and fluorescence of single cells or particles in a stream.

The test system of series [4] is human glioma cell line U251. Briefly: Proliferation of U251 cells (CCK8 kit). The procedure: as §1
Series [5] concerns seven human cancer cell lines. Put plainly: Proliferation of seven human cancer cell lines (CCK8 kit), summary over the panel. As for the experimental part: as §1
For series [6], the system named is human hepatic normal cell line LO2. Put plainly: Apoptosis of normal LO2 cells (apoptosis detection kit, flow cytometry). The settings on record: 24 h.
The subject of series [7] is human liver cancer cell line HepG2. Briefly: Proliferation of HepG2 cells (CCK8 kit). The settings on record: HepG2, 24 h. As for the experimental part: as §1
The test system of series [8] is human breast cancer cell line MDA-MB-231. Put plainly: Proliferation of MDA-MB-231 cells (CCK8 kit). The settings on record: MDA-MB-231, 24 h. The procedure:
as §1

The subject of series [9] is human lung cancer cell line NCI-H460. Briefly: Apoptosis of NCI-H460 cells (apoptosis detection kit, flow cytometry). Particulars: NCI-H460, 10.0 μM, 24 h. The procedure: as §2, with “[…]” for “6-well”, “CT-3” for “CT-3 was”
For series [10], the system named is human lung cancer cell line H1650. Briefly: Proliferation of H1650 cells (CCK8 kit). The procedure: as §1
For series [11], the system named is human colon cancer cell line LOVO. Put plainly: Proliferation of LOVO cells (CCK8 kit). Particulars: 24 h. The procedure:
as §1

For series [12], the system named is human gastric cancer cell line AGS. Briefly: Proliferation of AGS cells (CCK8 kit). The settings on record: 24 h. The procedure: as §1
Where [13] appears, read: NCI-H460, 20 μM, 24 h, CCK8, read-out: Inhibition Rate (%).
The mark [14] stands for this setting: OVCAR-3, OVCAR3, 24 h, CCK8, read-out: Half maximal inhibitory concentration (IC50).
Where [15] appears, read: U-251, U251, 24 h, CCK8, read-out: Half maximal inhibitory concentration (IC50).
The mark [16] stands for this setting: U251, H1650, HepG2, MDA-MB-231, AGS, LOVO, OVCAR3, 24 h, CCK8, read-out: IC50 against 7 kinds of human cancer cells (range over the panel).
Where [17] appears, read: CCK8, read-out: Half maximal inhibitory concentration (IC50).
[18] abbreviates: NCI-H1650, H1650, 24 h, CCK8, read-out: Half maximal inhibitory concentration (IC50).
The mark [19] stands for this setting: LOVO, CCK8, read-out: Half maximal inhibitory concentration (IC50).
The mark [20] stands for this setting: read-out: Half maximal inhibitory concentration (IC50).

Molecules are shown by their SMILES. Like-named read-outs stand apart in the source and are kept apart here.

As for `C=CCc1ccc(O)c(-c2cc(CC=C)ccc2OCCSCCCCN=C=S)c1` [CT-1], the inhibition at 20 µM in series [1] (setting [13]) was determined as 18.4%.

On to `C=CCc1ccc(O)c(-c2cc(CC=C)ccc2OCCS(=O)(=O)CCCCN=C=S)c1` [CT-2], for which, in [1] (setting [13]), the inhibition at 20 µM was found to be 70.3%.

`C=CCc1ccc(O)c(-c2cc(CC=C)ccc2OCC[S+]([O-])CCCCN=C=S)c1` (stereo not shown) [CT-3]: the IC50 in [2] (setting [14]) is 5.34 µM; in series [4] (setting [15]), 7.75 µM; in series [5] (setting [16]), 5.1 to 8.02 µM; in [7] (setting [17]), 6.24 µM; in series [8] (setting [17]) it was 7.48 µM; in series [10] (setting [18]) it was 6.92 µM. For the same compound, the results for the IC50 in [11] (setting [19]) and in series [12] (setting [17]) were 5.1 µM and 8.02 µM, respectively. For the same compound, the “Apoptosis Rate (%)” value in series [3] turned out to be 61.87%; in series [6] (human, 10 μM), 6.48%; in [9] it was 73.82%. Moreover, in series [1] (setting [13]), the inhibition at 20 µM turned out to be 99%.

For `C=CCc1ccc(O)c(-c2cc(CC=C)ccc2O)c1` [Magnolol], the IC50 was more than 45 µM in series [2] (OVCAR-3, 24 h, read-out: Half maximal inhibitory concentration (IC50)); more than 45 µM in [4] (U-251, 24 h, read-out: Half maximal inhibitory concentration (IC50)); more than 45 µM in series [5] (24 h, read-out: IC50 against 7 kinds of human cancer cells (range over the panel)); more than 45 µM in series [7] (setting [20]); more than 45 µM in series [8] (setting [20]); more than 45 µM in [10] (NCI-H1650, 24 h, read-out: Half maximal inhibitory concentration (IC50)). The IC50 in [11] (LoVo, read-out: Half maximal inhibitory concentration (IC50)) was more than 45 µM; in series [12] (setting [20]), more than 45 µM. The “Apoptosis Rate (%)” value was found to be 4.02% in series [3]; 4.71% in series [6] (normal LO2 cells, 10.0 μM, flow cytometry); 3.12% in series [9]. In series [1] (NCI-H460, 24 h, read-out: Inhibition Rate (%)), the inhibition at 20 µM turned out to be 1.2%.

For `C[S+]([O-])CCCCN=C=S` (stereo not shown) [Sulforaphane], the IC50 in series [2] (setting [14]) is 18.4 µM; in series [4] (setting [15]), 22.5 µM; in series [5] (setting [16]) it was 18.4 to 22.5 µM; in series [7] (setting [17]), 21 µM; in series [8] (setting [17]), 22.2 µM; in [10] (setting [18]), 22 µM. Besides, the results for the IC50 in [11] (setting [19]) and in [12] (setting [17]) were 18.5 µM and 18.1 µM, respectively. Besides, the “Apoptosis Rate (%)” value in series [3] worked out at 19.99%; in series [6] (human, 10 μM), 6.52%; in series [9], 18.90%.

As a reminder, the inhibition is the change of the read-out against control, counted positive when it falls.
